Results from ChEMBL document CHEMBL4507265 (2021).

What was measured:
[1] = molecular target: Bone morphogenetic protein receptor type-1B (Homo sapiens) (UniProt O00238); details: Compound concentration 1000.0 nM
[2] = molecular target: Ephrin type-A receptor 2 (Homo sapiens) (UniProt P29317); details: Compound concentration 1000.0 nM
[3] = molecular target: Cyclin-dependent kinase 17 (Homo sapiens) (UniProt Q00537); details: Compound concentration 1000.0 nM
[4] = molecular target: Calcium/calmodulin-dependent protein kinase type 1D (Homo sapiens) (UniProt Q8IU85); details: Compound concentration 1000.0 nM
[5] = molecular target: Serine/threonine-protein kinase NLK (Homo sapiens) (UniProt Q9UBE8); details: Compound concentration 1000.0 nM
[6] = molecular target: Calcium/calmodulin-dependent protein kinase type II subunit alpha (Homo sapiens) (UniProt Q9UQM7); details: Compound concentration 1000.0 nM
[7] = molecular target: Tyrosine-protein kinase JAK2 (Homo sapiens) (UniProt O60674); details: Compound concentration 1000.0 nM
[8] = molecular target: Serine/threonine-protein kinase LATS1 (Homo sapiens) (UniProt O95835); details: Compound concentration 1000.0 nM
[9] = molecular target: Platelet-derived growth factor receptor alpha (Homo sapiens) (UniProt P16234); details: Compound concentration 1000.0 nM
[10] = tested on: Phosphatidylinositol 4,5-bisphosphate 3-kinase catalytic subunit alpha isoform (Homo sapiens), P42336 [E545A]; details: Compound concentration 1000.0 nM
[11] = molecular target: Dual specificity tyrosine-phosphorylation-regulated kinase 1A (Homo sapiens) (UniProt Q13627); details: Compound concentration 1000.0 nM
[12] = molecular target: Serine/threonine-protein kinase tousled-like 2 (Homo sapiens) (UniProt Q86UE8); details: Compound concentration 1000.0 nM
[13] = molecular target: Serine/threonine-protein kinase Chk1 (Homo sapiens) (UniProt O14757); details: Compound concentration 1000.0 nM
[14] = molecular target: Discoidin domain-containing receptor 2 (Homo sapiens) (UniProt Q16832); details: Compound concentration 1000.0 nM
[15] = molecular target: Serine/threonine-protein kinase SBK1 (Homo sapiens) (UniProt Q52WX2); details: Compound concentration 1000.0 nM
[16] = molecular target: Mitogen-activated protein kinase kinase kinase 1 (Homo sapiens) (UniProt Q13233); details: Compound concentration 1000.0 nM
[17] = molecular target: Casein kinase I isoform delta (Homo sapiens) (UniProt P48730); details: Compound concentration 1000.0 nM
[18] = molecular target: Mitogen-activated protein kinase kinase kinase 3 (Homo sapiens) (UniProt Q99759); details: Compound concentration 1000.0 nM
[19] = molecular target: Macrophage-stimulating protein receptor (Homo sapiens) (UniProt Q04912); details: Compound concentration 1000.0 nM
[20] = molecular target: Protein-tyrosine kinase 6 (Homo sapiens) (UniProt Q13882); details: Compound concentration 1000.0 nM
[21] = tested on: Tyrosine-protein kinase ABL1 (Homo sapiens), P00519 [F317I]; details: Compound concentration 1000.0 nM
[22] = molecular target: High affinity nerve growth factor receptor (Homo sapiens) (UniProt P04629); details: Compound concentration 1000.0 nM
[23] = molecular target: Serine/threonine-protein kinase DCLK3 (Homo sapiens) (UniProt Q9C098); details: Compound concentration 1000.0 nM
[24] = tested on: Receptor-type tyrosine-protein kinase FLT3 (Homo sapiens), P36888 [D835V]; details: Compound concentration 1000.0 nM
[25] = molecular target: Calcium/calmodulin-dependent protein kinase kinase 2 (Homo sapiens) (UniProt Q96RR4); details: Compound concentration 1000.0 nM
[26] = molecular target: Ribosomal protein S6 kinase alpha-4 (Homo sapiens) (UniProt O75676); details: Compound concentration 1000.0 nM
[27] = tested on: Epidermal growth factor receptor (Homo sapiens), P00533 [UNDEFINED MUTATION]; details: Compound concentration 1000.0 nM
[28] = molecular target: Cyclin-dependent kinase 11B (Homo sapiens) (UniProt P21127); details: Compound concentration 1000.0 nM
[29] = molecular target: Tyrosine-protein kinase Srms (Homo sapiens) (UniProt Q9H3Y6); details: Compound concentration 1000.0 nM
[30] = molecular target: cGMP-dependent protein kinase 1 (Homo sapiens) (UniProt Q13976); details: Compound concentration 1000.0 nM
[31] = molecular target: Ephrin type-B receptor 4 (Homo sapiens) (UniProt P54760); details: Compound concentration 1000.0 nM
[32] = molecular target: Histamine H2 receptor (Homo sapiens) (UniProt P25021); details: Compound concentration 10.0 uM
[33] = molecular target: NUAK family SNF1-like kinase 2 (Homo sapiens) (UniProt Q9H093); details: Compound concentration 1000.0 nM
[34] = molecular target: Homeodomain-interacting protein kinase 2 (Homo sapiens) (UniProt Q9H2X6); details: Compound concentration 1000.0 nM
[35] = molecular target: Mitogen-activated protein kinase 1 (Homo sapiens) (UniProt P28482); details: Compound concentration 1000.0 nM
[36] = molecular target: Serine/threonine-protein kinase STK11 (Homo sapiens) (UniProt Q15831); details: Compound concentration 1000.0 nM
[37] = tested on: Phosphatidylinositol 4,5-bisphosphate 3-kinase catalytic subunit alpha isoform (Homo sapiens), P42336 [E545K]; details: Compound concentration 1000.0 nM
[38] = molecular target: Ankyrin repeat and protein kinase domain-containing protein 1 (Homo sapiens) (UniProt Q8NFD2); details: Compound concentration 1000.0 nM
[39] = molecular target: Serine/threonine-protein kinase WNK1 (Homo sapiens) (UniProt Q9H4A3); details: Compound concentration 1000.0 nM
[40] = molecular target: Tyrosine-protein kinase TXK (Homo sapiens) (UniProt P42681); details: Compound concentration 1000.0 nM
[41] = molecular target: Dual serine/threonine and tyrosine protein kinase (Homo sapiens) (UniProt Q6XUX3); details: Compound concentration 1000.0 nM
[42] = molecular target: Serine/threonine-protein kinase 26 (Homo sapiens) (UniProt Q9P289); details: Compound concentration 1000.0 nM
[43] = molecular target: MAP kinase-activated protein kinase 2 (Homo sapiens) (UniProt P49137); details: Compound concentration 1000.0 nM
[44] = molecular target: Phosphatidylinositol 4-phosphate 5-kinase type-1 gamma (Homo sapiens) (UniProt O60331); details: Compound concentration 1000.0 nM
[45] = molecular target: Receptor-type tyrosine-protein kinase FLT3 (Homo sapiens) (UniProt P36888); details: Compound concentration 1000.0 nM

Tyrosine-protein kinase TXK (Homo sapiens), sequence (P42681 whole entry): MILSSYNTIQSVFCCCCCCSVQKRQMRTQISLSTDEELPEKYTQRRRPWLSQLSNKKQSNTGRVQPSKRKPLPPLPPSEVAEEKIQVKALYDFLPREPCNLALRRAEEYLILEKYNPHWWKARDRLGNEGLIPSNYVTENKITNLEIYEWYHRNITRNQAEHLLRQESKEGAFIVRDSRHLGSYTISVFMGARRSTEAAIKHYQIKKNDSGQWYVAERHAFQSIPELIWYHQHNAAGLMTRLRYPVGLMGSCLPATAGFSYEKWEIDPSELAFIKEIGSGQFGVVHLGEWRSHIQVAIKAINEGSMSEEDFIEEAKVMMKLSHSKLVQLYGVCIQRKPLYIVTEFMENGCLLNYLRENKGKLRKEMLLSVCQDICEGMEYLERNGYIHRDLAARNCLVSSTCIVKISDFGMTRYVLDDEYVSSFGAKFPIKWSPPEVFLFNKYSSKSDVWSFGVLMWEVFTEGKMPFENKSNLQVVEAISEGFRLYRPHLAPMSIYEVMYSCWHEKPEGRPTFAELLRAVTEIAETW
Ankyrin repeat and protein kinase domain-containing protein 1 (Homo sapiens), sequence (Q8NFD2 whole entry, the tested form may be a part): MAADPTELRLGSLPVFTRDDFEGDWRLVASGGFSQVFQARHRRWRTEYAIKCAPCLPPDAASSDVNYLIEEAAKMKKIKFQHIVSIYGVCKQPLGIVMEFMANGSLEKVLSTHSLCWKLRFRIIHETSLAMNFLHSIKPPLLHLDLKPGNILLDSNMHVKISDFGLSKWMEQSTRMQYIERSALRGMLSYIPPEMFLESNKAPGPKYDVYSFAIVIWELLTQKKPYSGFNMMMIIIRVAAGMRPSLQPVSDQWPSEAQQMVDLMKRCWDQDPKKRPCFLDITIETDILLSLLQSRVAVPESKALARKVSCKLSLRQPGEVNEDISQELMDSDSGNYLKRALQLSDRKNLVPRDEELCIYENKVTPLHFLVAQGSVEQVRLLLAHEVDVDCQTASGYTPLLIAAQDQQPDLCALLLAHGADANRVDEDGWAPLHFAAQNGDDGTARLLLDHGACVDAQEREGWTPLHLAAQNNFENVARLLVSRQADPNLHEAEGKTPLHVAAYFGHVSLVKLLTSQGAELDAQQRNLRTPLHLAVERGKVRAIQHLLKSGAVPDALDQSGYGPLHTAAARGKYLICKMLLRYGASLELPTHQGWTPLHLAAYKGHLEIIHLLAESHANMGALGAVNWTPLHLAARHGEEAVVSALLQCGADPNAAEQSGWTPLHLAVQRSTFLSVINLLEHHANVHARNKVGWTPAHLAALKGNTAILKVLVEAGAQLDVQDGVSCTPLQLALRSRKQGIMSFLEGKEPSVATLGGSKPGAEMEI
Epidermal growth factor receptor (Homo sapiens), P00533 [UNDEFINED MUTATION], sequence (P00533 whole entry, looked up, change not shown): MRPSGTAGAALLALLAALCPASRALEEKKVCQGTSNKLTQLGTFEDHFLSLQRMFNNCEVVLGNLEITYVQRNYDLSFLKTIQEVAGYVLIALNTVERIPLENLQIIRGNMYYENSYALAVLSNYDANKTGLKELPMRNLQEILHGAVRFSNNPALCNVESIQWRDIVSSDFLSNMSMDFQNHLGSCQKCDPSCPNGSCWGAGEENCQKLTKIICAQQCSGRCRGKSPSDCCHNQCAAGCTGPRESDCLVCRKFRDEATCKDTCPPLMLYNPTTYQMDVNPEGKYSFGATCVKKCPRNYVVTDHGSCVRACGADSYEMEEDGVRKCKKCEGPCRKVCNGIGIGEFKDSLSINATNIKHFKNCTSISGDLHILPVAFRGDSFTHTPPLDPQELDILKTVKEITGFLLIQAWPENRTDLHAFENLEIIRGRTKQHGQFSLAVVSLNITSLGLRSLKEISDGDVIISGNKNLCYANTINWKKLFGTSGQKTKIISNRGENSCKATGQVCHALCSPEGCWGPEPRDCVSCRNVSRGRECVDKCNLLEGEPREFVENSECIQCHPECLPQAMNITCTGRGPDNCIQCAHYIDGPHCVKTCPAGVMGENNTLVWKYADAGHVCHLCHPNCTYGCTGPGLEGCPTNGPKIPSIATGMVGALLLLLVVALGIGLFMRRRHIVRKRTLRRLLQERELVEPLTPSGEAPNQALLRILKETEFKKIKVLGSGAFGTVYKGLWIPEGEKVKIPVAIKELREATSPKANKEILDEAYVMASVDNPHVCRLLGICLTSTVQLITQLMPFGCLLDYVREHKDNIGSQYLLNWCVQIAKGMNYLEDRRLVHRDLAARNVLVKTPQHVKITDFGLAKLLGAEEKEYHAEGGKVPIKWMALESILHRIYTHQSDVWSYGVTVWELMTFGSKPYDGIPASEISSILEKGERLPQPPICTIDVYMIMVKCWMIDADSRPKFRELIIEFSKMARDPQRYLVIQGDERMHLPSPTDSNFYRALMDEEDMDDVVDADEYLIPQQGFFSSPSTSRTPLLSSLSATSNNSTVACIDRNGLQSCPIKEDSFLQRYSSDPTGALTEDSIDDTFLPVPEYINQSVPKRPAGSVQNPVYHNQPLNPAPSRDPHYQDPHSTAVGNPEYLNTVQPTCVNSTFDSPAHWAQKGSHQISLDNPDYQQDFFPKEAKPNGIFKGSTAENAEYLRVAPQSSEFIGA
Serine/threonine-protein kinase LATS1 (Homo sapiens), sequence (O95835 whole entry): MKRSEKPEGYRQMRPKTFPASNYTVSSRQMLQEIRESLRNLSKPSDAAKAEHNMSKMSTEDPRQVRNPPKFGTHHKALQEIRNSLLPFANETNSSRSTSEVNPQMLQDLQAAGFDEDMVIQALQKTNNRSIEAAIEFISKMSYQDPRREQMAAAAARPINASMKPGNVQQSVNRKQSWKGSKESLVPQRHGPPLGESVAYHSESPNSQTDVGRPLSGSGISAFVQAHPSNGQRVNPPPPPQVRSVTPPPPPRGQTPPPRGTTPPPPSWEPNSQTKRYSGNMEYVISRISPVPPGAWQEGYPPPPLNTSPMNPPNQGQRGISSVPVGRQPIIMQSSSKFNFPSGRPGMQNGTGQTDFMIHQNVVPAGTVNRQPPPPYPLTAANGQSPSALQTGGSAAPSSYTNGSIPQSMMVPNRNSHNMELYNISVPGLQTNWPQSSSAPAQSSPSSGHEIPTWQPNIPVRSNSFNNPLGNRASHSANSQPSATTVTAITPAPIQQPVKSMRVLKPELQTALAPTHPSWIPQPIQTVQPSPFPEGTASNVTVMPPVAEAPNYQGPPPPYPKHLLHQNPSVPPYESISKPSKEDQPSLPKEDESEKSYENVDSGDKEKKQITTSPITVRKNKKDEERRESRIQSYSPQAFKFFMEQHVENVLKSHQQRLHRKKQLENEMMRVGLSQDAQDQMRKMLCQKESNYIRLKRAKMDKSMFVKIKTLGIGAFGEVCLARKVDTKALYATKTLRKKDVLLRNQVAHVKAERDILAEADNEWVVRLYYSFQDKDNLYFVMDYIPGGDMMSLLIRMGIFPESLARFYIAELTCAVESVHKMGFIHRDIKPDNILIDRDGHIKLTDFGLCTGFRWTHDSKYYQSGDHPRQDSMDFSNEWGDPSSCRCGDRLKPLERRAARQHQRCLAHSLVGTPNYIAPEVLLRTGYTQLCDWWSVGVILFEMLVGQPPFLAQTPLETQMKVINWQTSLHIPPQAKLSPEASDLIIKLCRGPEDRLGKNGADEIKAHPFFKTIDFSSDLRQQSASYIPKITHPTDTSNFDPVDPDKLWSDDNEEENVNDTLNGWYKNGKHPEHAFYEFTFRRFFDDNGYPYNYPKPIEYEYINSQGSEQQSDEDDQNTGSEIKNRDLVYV
Protein-tyrosine kinase 6 (Homo sapiens), sequence (Q13882 whole entry, looked up): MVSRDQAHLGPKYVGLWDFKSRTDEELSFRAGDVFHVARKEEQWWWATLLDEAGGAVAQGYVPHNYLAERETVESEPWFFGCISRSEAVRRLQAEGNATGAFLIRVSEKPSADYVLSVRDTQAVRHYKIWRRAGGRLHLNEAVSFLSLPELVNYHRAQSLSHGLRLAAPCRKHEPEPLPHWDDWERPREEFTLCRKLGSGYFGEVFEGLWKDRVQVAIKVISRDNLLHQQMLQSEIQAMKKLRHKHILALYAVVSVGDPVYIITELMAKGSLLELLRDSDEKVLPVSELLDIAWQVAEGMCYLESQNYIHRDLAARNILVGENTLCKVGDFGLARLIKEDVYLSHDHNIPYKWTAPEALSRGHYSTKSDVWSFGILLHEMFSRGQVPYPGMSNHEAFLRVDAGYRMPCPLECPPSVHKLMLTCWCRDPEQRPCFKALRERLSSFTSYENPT
Mitogen-activated protein kinase kinase kinase 3 (Homo sapiens), sequence (Q99759 whole entry): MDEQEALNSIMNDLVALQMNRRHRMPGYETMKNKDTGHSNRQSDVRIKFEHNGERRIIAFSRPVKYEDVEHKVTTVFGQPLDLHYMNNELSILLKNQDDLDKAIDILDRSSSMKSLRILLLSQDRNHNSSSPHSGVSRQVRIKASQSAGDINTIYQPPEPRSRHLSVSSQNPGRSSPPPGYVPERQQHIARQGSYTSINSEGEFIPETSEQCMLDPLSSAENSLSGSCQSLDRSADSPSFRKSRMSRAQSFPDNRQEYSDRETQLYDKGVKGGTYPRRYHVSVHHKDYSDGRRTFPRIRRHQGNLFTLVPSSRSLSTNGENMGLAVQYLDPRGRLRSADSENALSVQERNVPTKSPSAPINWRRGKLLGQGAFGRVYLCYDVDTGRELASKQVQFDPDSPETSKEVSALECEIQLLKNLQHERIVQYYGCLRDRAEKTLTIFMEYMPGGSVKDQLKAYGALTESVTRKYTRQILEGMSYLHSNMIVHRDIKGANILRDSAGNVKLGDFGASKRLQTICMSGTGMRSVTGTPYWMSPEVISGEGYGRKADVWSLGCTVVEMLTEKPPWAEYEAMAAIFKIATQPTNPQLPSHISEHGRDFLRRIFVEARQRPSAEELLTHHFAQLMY
Mitogen-activated protein kinase 1 (Homo sapiens), sequence (P28482 whole entry): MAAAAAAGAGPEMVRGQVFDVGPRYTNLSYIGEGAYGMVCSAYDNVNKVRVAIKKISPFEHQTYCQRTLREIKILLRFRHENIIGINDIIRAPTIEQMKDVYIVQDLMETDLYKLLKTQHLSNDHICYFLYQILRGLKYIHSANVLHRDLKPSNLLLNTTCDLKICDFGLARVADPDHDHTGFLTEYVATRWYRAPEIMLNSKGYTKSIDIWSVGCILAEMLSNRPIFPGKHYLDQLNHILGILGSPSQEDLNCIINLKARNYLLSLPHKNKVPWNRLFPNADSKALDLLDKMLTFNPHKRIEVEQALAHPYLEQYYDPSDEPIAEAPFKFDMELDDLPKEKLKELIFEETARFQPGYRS

NS(=O)(=O)c1cc(NC(=O)C2(c3ccccc3Cl)CC2)ccc1Oc1cccc(Cl)c1 [BAY-207]
residual activity [1]: 81%
residual activity [2]: 80%
residual activity [3]: 88%
residual activity [4]: 97%
residual activity [5]: 68%
residual activity [6]: 97%
residual activity [7]: 100%
residual activity [8]: 69%
residual activity [9]: 81%
residual activity [10]: 82%
residual activity [11]: 90%
residual activity [12]: 100%
residual activity [13]: 80%
residual activity [14]: 96%
residual activity [15]: 100%
residual activity [16]: 100%
residual activity [17]: 83%
residual activity [18]: 100%
residual activity [19]: 99%
residual activity [20]: 99%
residual activity [21]: 96%
residual activity [22]: 100%
residual activity [23]: 56%
residual activity [24]: 100%
residual activity [25]: 89%
residual activity [26]: 70%
residual activity [27]: 85%
residual activity [28]: 83%
residual activity [29]: 77%
residual activity [30]: 91%
residual activity [31]: 57%
inhibition [32]: 11.5%
residual activity [33]: 80%
residual activity [34]: 88%
residual activity [35]: 75%
residual activity [36]: 100%
residual activity [37]: 96%
residual activity [38]: 97%
residual activity [39]: 88%
residual activity [40]: 90%
residual activity [41]: 93%
residual activity [42]: 100%
residual activity [43]: 90%
residual activity [44]: 48%
residual activity [45]: 100%

NS(=O)(=O)c1cc(NC(=O)Cc2ccccc2)ccc1Oc1cccc(Cl)c1 [BAY-1797]
residual activity [1]: 94%
residual activity [2]: 91%
residual activity [3]: 88%
residual activity [4]: 100%
residual activity [5]: 100%
residual activity [6]: 96%
residual activity [7]: 73%
residual activity [8]: 79%
residual activity [9]: 80%
residual activity [10]: 69%
residual activity [11]: 95%
residual activity [12]: 100%
residual activity [13]: 99%
residual activity [14]: 87%
residual activity [15]: 100%
residual activity [16]: 66%
residual activity [17]: 93%
residual activity [18]: 71%
residual activity [19]: 97%
residual activity [20]: 96%
residual activity [21]: 51%
residual activity [22]: 73%
residual activity [23]: 92%
residual activity [24]: 86%
residual activity [25]: 91%
residual activity [26]: 100%
residual activity [27]: 76%
residual activity [28]: 71%
residual activity [29]: 78%
residual activity [30]: 100%
residual activity [31]: 98%
inhibition [32]: -4.85%
residual activity [33]: 91%
residual activity [34]: 62%
residual activity [35]: 71%
residual activity [36]: 51%
residual activity [37]: 77%
residual activity [38]: 78%
residual activity [39]: 89%
residual activity [40]: 92%
residual activity [41]: 83%
residual activity [42]: 99%
residual activity [43]: 100%
residual activity [44]: 100%
residual activity [45]: 100%
